{
  "source": "the NIST ThermoML archive (doi:10.1016/j.tca.2018.10.026)",
  "assay": "Molar enthalpy of transition or fusion",
  "details": "Crystal; DSC",
  "note": "Numbers after ± are expanded uncertainties.",
  "data": [
    {"smiles": "O.O.O.O.O.O.[Br-].[Br-].[Ca+2]", "note": "[calcium bromide hexahydrate]", "values": [
      {"measurement": "Molar enthalpy of transition or fusion", "value": "10.5 ± 0.22", "unit": "kcal/mol"}
    ]}
  ]
}
